Data on 27 compounds can be found in patent US20260166039A1 (SCHRÖDINGER, INC., priority 2022, published 2026).

What is called IC50 is the point on the concentration scale where inhibition reaches its midpoint.

One test concerns the target T1, Wee1 kinase domain (Homo sapiens, UniProt P30291).
T1 construct: Wee1 kinase domain was purchased from Carna (catalog #05-177); purchased Carna 05-177
The test is described as follows: Wee1 Kinase Biochemical Assay (ADP-Glo). Conditions: 15 uM ATP. In short, it runs like this:
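The reaction mix held 1 nM Wee1 kinase domain, 15 uM ATP and 2 ng/mL Poly(Lys,Tyr 4:1) substrate and was left for 4 hours at 25 °C. ADP production was then measured with ADP-Glo, and percent inhibition was derived relative to DMSO and a saturating Wee1 inhibitor.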

Test [1] deals with phosphorylation of Cdc2 Y15 (Wee1 substrate) in A427 cells. The test is described as follows: Phosphorylated Cdc2 MSD Electrochemiluminescence Assay. Conditions: Homo sapiens. It counts as cell-based. The essentials: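 Read-out: percent residual phospho-Cdc2 Y15 relative to DMSO and positive-control Wee1 inhibitor, measured by MSD electrochemiluminescence capture/detection antibody assay in cell lysates. A427 cells received duplicate 3-fold compound dilution series 20 h post-seeding, with 6 h total incubation at 37 °C.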

The mark [2] stands for this setting: class symbols, 1 nM Wee1 enzyme, 4 hours at 25° C.
[3] abbreviates: A-427, class symbols, read-out: A427 pCDC2 MSD IC50.

Where two headings read alike, the source gives them in different places.

T1 sequence (P30291 299-569 limits assumed): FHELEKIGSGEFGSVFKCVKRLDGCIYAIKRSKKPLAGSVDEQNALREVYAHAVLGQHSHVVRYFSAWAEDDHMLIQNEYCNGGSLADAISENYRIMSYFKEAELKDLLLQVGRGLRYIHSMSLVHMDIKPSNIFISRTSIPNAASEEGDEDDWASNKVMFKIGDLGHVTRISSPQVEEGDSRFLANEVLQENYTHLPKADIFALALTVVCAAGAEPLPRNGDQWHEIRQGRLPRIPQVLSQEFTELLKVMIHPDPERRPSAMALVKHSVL

Regarding `CC1(C)C[C@H]2N(c3cccc([C@H]4COCCN4)n3)c3nc(Nc4ccc(N5CCOCC5)cc4)ncc3[C@@]2(C)CO1` [Example 731, (4bR,8aR)-4b,7,7-trimethyl-9-(6-((S)-morpholin-3-yl)pyridin-2-yl)-N-(4-morpholinophenyl)-4b,5,7,8,8a,9-hexahydropyrano[3′,4′:4,5]pyrrolo[2,3-d]pyrimidin-2-amine], the IC50 against Wee1 kinase domain (setting [2]) is under 10 nM; in test [1] (setting [3]), 100 to 1000 nM.
Turning to `CN1CCC(n2ccc(Nc3ncc4c(n3)N(c3cccc(N=S(C)(C)=O)n3)[C@@H]3CC(C)(C)OC[C@]43C)cc2=O)CC1` [Example 152, 4-(((4bR,8aR)-9-(6-((dimethyl(oxo)-16-sulfaneylidene)amino)pyridin-2-yl)-4b,7,7-trimethyl-4b,5,7,8,8a,9-hexahydropyrano[3′,4′:4,5]pyrrolo[2,3-d]pyrimidin-2-yl)amino)-1-(1-methylpiperidin-4-yl)pyridin-2(1H)-one], the IC50 against Wee1 kinase domain (Wee1 kinase domain, ADP-Glo) was under 10 nM; in test [1] (A-427, pCDC2 MSD) it was 100 to 1000 nM.
Turning to `CN1CCN(c2ccc(Nc3ncc4c(n3)N(c3cccc(N=S(C)(C)=O)n3)[C@@H]3CC(C)(C)OC[C@]43C)cc2)CC1` [Example 100, Dimethyl((6-((4bR,8aR)-4b,7,7-trimethyl-2-((4-(4-methylpiperazin-1-yl)phenyl)amino)-4b,7,8,8a-tetrahydropyrano[3′,4′:4,5]pyrrolo[2,3-d]pyrimidin-9(5H)-yl)pyridin-2-yl)imino)-l6-sulfanone], the IC50 against Wee1 kinase domain (Wee1 kinase domain, ADP-Glo) is under 10 nM; in test [1] (A-427, pCDC2 MSD), under 100 nM.
The like results for `CN1Cc2cc(Nc3ncc4c(n3)N(c3cccc(N=S(C)(C)=O)n3)[C@@H]3CC(C)(C)OC[C@]43C)ccc2C(C)(C)C1` (single isomer, unassigned) [Example 135] were, in that order, under 10 nM and under 100 nM.
In the case of `CN1C[C@H]2C[C@@H]1CN2c1ccc(Nc2ncc3c(n2)N(c2cccc(C4(O)COC4)n2)[C@@H]2CC(C)(C)OC[C@]32C)cc1` (single isomer, unassigned) [Example 517], the values for the IC50 (on Wee1 kinase domain (setting [2]); in test [1] (setting [3])) were under 10 nM and 100 to 1000 nM, respectively.
Taken in the same sequence, the figures for `Cc1cc(Nc2ncc3c(n2)N(c2cccc([C@@H]4CCCN4)n2)[C@@H]2CC(C)(C)OC[C@]32C)ccc1N1CCOCC1` (single isomer, unassigned) [Example 529] were under 10 nM and 100 to 1000 nM.
Consider `CN1CC[C@H]2CN(c3ccc(Nc4ncc5c(n4)N(c4cccc(N6CCCC6=O)n4)[C@@H]4CC(C)(C)OC[C@]54C)cc3)C[C@H]21` [Example 688, 1-(6-((4bR,8aR)-4b,7,7-trimethyl-2-((4-((3aS,6aS)-1-methylhexahydropyrrolo[3,4-b]pyrrol-5(1H)-yl)phenyl)amino)-4b,7,8,8a-tetrahydropyrano[3′,4′:4,5]pyrrolo[2,3-d]pyrimidin-9(5H)-yl)pyridin-2-yl)pyrrolidin-2-one], for which the IC50 is under 10 nM against Wee1 kinase domain (setting [2]) and under 100 nM in test [1] (setting [3]).
Taken in the same sequence, the figures for `CN1CC[C@H]2CN(c3ccc(Nc4ncc5c(n4)N(c4cccc(N=S(C)(C)=O)n4)[C@@H]4CC(C)(C)OC[C@]54C)cc3)C[C@H]21` (single isomer, unassigned) [Example 503] were under 10 nM and under 100 nM.
`C[C@H]1COC(=O)N1c1cccc(N2c3nc(Nc4ccc([C@@]5(C)CCN(C)C5)cc4)ncc3[C@@]3(C)COC(C)(C)C[C@@H]23)n1` (single isomer, unassigned) [Example 349]: the IC50 against Wee1 kinase domain (Wee1 kinase domain, ADP-Glo) was under 10 nM; in test [1] (A-427, pCDC2 MSD), 100 to 1000 nM.
Take `CNCc1cccc(N2c3nc(Nc4ccc(N5C[C@H]6C[C@@H](C5)O6)cc4)ncc3[C@@]3(C)COC(C)(C)C[C@@H]23)n1` (single isomer, unassigned) [Example 481]: the IC50 against Wee1 kinase domain (setting [2]) is under 10 nM; in test [1] (setting [3]), 100 to 1000 nM.
The like results for `CC1(C)C[C@H]2N(c3cccc(N=S(C)(C)=O)n3)c3nc(Nc4ccc(N5C[C@H]6C[C@@H]5CO6)cc4)ncc3[C@@]2(C)CO1` (single isomer, unassigned) [Example 498] were, in that order, under 10 nM and 100 to 1000 nM.
With `CN1CC[C@H](c2ccc(Nc3ncc4c(n3)N(c3cccc(N=S(C)(C)=O)n3)[C@@H]3CC(C)(C)OC[C@]43C)cc2)C1` (single isomer, unassigned) [Example 133], the IC50 against Wee1 kinase domain (Wee1 kinase domain, ADP-Glo) is under 10 nM; in test [1] (A-427, pCDC2 MSD), 100 to 1000 nM.
With `CC1(C)C[C@H]2N(c3ccc4c(n3)[C@@](C)(N)CC4)c3nc(Nc4ccc(N5CCOCC5)cc4)ncc3[C@@]2(C)CO1` (single isomer, unassigned) [Example 565], the IC50 is under 10 nM against Wee1 kinase domain (setting [2]) and 100 to 1000 nM in test [1] (setting [3]).
Taken in the same sequence, the figures for `CN1CCN(c2ccc(Nc3ncc4c(n3)N(c3ccn(C)n3)[C@@H]3CC(C)(C)OC[C@]43C)cc2)CC1` (single isomer, unassigned) [Example 717] were under 10 nM and 100 to 1000 nM.
Taken in the same sequence, the figures for `CN1CC[C@@H](Oc2ccc(Nc3ncc4c(n3)N(c3cccc(C(C)(C)O)n3)C3CC(C)(C)OCC43C)cc2)C1` (stereo in doubt) [Example 423, 2-(6-((4bR,8aR)-4b,7,7-trimethyl-2-((4-(((R)-1-methylpyrrolidin-3-yl)oxy)phenyl)amino)-4b,7,8,8a-tetrahydropyrano[3′,4′:4,5]pyrrolo[2,3-d]pyrimidin-9(5H)-yl)pyridin-2-yl)propan-2-ol] were under 10 nM and 100 to 1000 nM.
As to `CNCc1cccc(N2c3nc(Nc4ccc([C@H]5CNC(=O)C5)cc4)ncc3[C@@]3(C)COC(C)(C)C[C@@H]23)n1` (single isomer, unassigned) [Example 61], the IC50 against Wee1 kinase domain (Wee1 kinase domain, ADP-Glo) was under 10 nM; in test [1] (A-427, pCDC2 MSD) it was under 100 nM.
In the case of `CC1(C)C[C@H]2N(c3cccc(N=S4(=O)CCCC4)n3)c3nc(NC(=O)C4CC4)ncc3[C@@]2(C)CO1` (single isomer, unassigned) [Example 400], the figures for the IC50 (against Wee1 kinase domain (setting [2]); in test [1] (setting [3])) were under 10 nM and 100 to 1000 nM, respectively.
In the case of `CNCc1cccc(N2c3nc(Nc4ccc(C5(C)COC5)cc4)ncc3[C@]3(C)COC(C)(C)C[C@H]23)n1` (single isomer, unassigned) [Example 82], the IC50 on Wee1 kinase domain (Wee1 kinase domain, ADP-Glo) was under 10 nM; in test [1] (A-427, pCDC2 MSD) it was 100 to 1000 nM.
Take `CNCc1cccc(N2c3nc(NC(=O)[C@@H]4C[C@H]4c4cnn(C)c4)ncc3[C@@]3(C)COC(C)(C)C[C@@H]23)n1` [Example 764, (1R,2R)-2-(1-methyl-1H-pyrazol-4-yl)-N-((4bR,8aR)-4b,7,7-trimethyl-9-(6-((methylamino)methyl)pyridin-2-yl)-4b,5,7,8,8a,9-hexahydropyrano[3′,4′:4,5]pyrrolo[2,3-d]pyrimidin-2-yl)cyclopropane-1-carboxamide]: the concentration for half-maximal inhibition (IC50) against Wee1 kinase domain (setting [2]) is under 10 nM; in test [1] (setting [3]), 100 to 1000 nM.
As for `C[C@@H]1CN(c2ccc(Nc3ncc4c(n3)N(c3cccc(N5C(=O)OC[C@@H]5C)n3)[C@@H]3CC(C)(C)OC[C@]43C)cc2)CCN1C` (single isomer, unassigned) [Example 313], the IC50 against Wee1 kinase domain (Wee1 kinase domain, ADP-Glo) was under 10 nM; in test [1] (A-427, pCDC2 MSD) it was 100 to 1000 nM.
The like results for `C[C@H]1COC(=O)N1c1cccc(N2c3nc(Nc4ccc(C(C)(C)C)nc4)ncc3[C@@]3(C)COC(C)(C)C[C@@H]23)n1` (single isomer, unassigned) [Example 301] were, in that order, under 10 nM and 1000 to 10000 nM.
On to `CC1(C)C[C@H]2N(c3cccc(N=S(C)(C)=O)n3)c3nc(Nc4ccc(N5CC6(CNC6)C5)cc4)ncc3[C@@]2(C)CO1` (single isomer, unassigned) [Example 494], for which the IC50 on Wee1 kinase domain (setting [2]) was under 10 nM; in test [1] (setting [3]), 100 to 1000 nM.
The like results for `CN1CC[C@@H]2CN(c3ccc(Nc4ncc5c(n4)N(c4cccc(N6CCCC6=O)n4)[C@@H]4CC(C)(C)OC[C@]54C)cc3)C[C@@H]21` [Example 686, 1-(6-((4bR,8aR)-4b,7,7-trimethyl-2-((4-((3aR,6aR)-1-methylhexahydropyrrolo[3,4-b]pyrrol-5(1H)-yl)phenyl)amino)-4b,7,8,8a-tetrahydropyrano[3′,4′:4,5]pyrrolo[2,3-d]pyrimidin-9(5H)-yl)pyridin-2-yl)pyrrolidin-2-one] were, in that order, under 10 nM and 100 to 1000 nM.
For the compound `CNCc1cccc(N2c3nc(Nc4ccc(N5C6CCC5COC6)cc4)ncc3[C@@]3(C)COC(C)(C)C[C@@H]23)n1` (single isomer, unassigned) [Example 87], the IC50 on Wee1 kinase domain (Wee1 kinase domain, ADP-Glo) is under 10 nM; in test [1] (A-427, pCDC2 MSD) it was 100 to 1000 nM.
Consider `CN1CC(c2ccc(Nc3ncc4c(n3)N(c3cccc(N=S(C)(C)=O)n3)[C@@H]3CC(C)(C)OC[C@]43C)cc2)C1` (single isomer, unassigned) [Example 165], for which the IC50 on Wee1 kinase domain (Wee1 kinase domain, ADP-Glo) was under 10 nM; in test [1] (A-427, pCDC2 MSD), under 100 nM.
For `CN=[S@](C)(=O)c1cccc(N2c3nc(Nc4ccc(N5CC6(CN(C)C6)C5)cc4)ncc3[C@@]3(C)COC(C)(C)C[C@@H]23)n1` [Example 770, (R)-methyl(methylimino)(6-((4bR,8aR)-4b,7,7-trimethyl-2-((4-(6-methyl-2,6-diazaspiro[3.3]heptan-2-yl)phenyl)amino)-4b,7,8,8a-tetrahydropyrano[3′,4′:4,5]pyrrolo[2,3-d]pyrimidin-9(5H)-yl)pyridin-2-yl)-16-sulfanone], the IC50 against Wee1 kinase domain (setting [2]) is under 10 nM; in test [1] (setting [3]), 100 to 1000 nM.
As to `C[C@H]1COC(=O)N1c1cccc(N2c3nc(Nc4ccc(OC5CCN(C)CC5)nc4)ncc3[C@@]3(C)COC(C)(C)C[C@@H]23)n1` (single isomer, unassigned) [Example 335], the IC50 on Wee1 kinase domain (Wee1 kinase domain, ADP-Glo) is under 10 nM; in test [1] (A-427, pCDC2 MSD) it was under 100 nM.
